Entries after “also recorded” stand apart in the source; their conditions may differ.
What was measured:
[1] = molecular target: SARS-COV-2 M^pro (authentic N- and C-termini) (Severe acute respiratory syndrome coronavirus 2, UniProt P0DTD1); assay: biochemical; format: biochemical
[2] = Plasma stability assay, mouse plasma; format: in vitro ADME; conditions: 10 μM, 37° C., after 2 h incubation
Protocol: (§1) Compound CDD-1713 and CDD-1976 were incubated in human and mouse plasma respectively at a concentration of 10 μM in duplicate (n=2) at 37° C. At time-points of 0, 30, 60 and 120 min, 15 μL of sample were taken out and the reactions terminated by adding 75 μL of ice-cold methanol. The reaction mixtures were then vortexed for 30 sec and centrifuged at rcf 15,000 for 15 min. Following centrifugation, 3 μL of the supernatant was analyzed using UHPLC-Q Exactive Orbitrap MS. The percentage of test compound remaining at the individual time points relative to the 0 min sample was then determined.

[3] = tested on: SARS-COV-2 (USA_WA1/2020 isolate) in VERO E6 cells; assay: Real-Time Cell Analysis (RTCA) assay of SARS-COV-2 replication; format: cell-based
[4] = Metabolic stability in human liver microsomes; format: in vitro ADME
Protocol: (§2) The samples were collected at specific time-points 0, 30, and 60 min in duplicate. The reactions were terminated by adding an equivalent volume of ice-cold methanol and vortexed. […] Three μL of the supernatant was analyzed by UHPLC-Q Exactive Orbitrap MS (Thermo Fisher Scientific, USA) equipped with 50 mm×4.6 mm column (XDB C-18, Agilent Technologies, USA). The column temperature was maintained at 40° C. The flow rate was at 0.3 mL/min with a 30% mobile phase (acetonitrile containing 0.1% formic acid). Q Exactive MS was operated in positive mode with electrospray ionization. Ultra-pure nitrogen was applied as the sheath (45 arbitrary unit), auxiliary (10 arbitrary unit), sweep (1.0 arbitrary unit) and the collision gas. […] MS data were acquired from 80 to 1,200 Da in profile mode.

[5] = molecular target: SARS-CoV-2 main protease (M^pro) (Severe acute respiratory syndrome coronavirus 2, UniProt P0DTD1); assay: Protein thermal shift stability assay (SYPRO Orange); format: binding
[6] = Metabolic stability in mouse liver microsomes; format: in vitro ADME; conditions: 0.5 mg protein/mL, 2.0 μM compound, 1.0 mM NADPH
Protocol: as §2

SARS-COV-2 M^pro-His6 = SARS-COV-2 M^pro-His6 (Severe acute respiratory syndrome coronavirus 2, UniProt P0DTD1); assay: biochemical; format: biochemical; conditions: 25 nM enzyme, 15 μM fluorescent peptide, Morrison equation; Inactive = less than 50% inhibition at 25 μM compound; read-out: M^pro-His Ki
HepG2 cells [7] = assay: HepG2 cytotoxicity assay (XTT); conditions: 100 μM
HepG2 cells [8] = assay: HepG2 cell uptake assay; format: in vitro ADME; conditions: 10 μM, 2 hours
Protocol: The HepG2 cells maintained in DMEM (containing 1 g/L glucose, 10% fetal bovine serum and 1% penicillin/streptomycin) were seeded in a 12-well plate (a final density of 5×10^5/well) for cell uptake assay and 96-well plate for cytotoxicity assay (a final density of 5×10^4/well). The plate was incubated at 37° C. for 24 h.
The cells in 12-well plate were treated with CDD-1713 or CDD-1976 (final concentration: 10 μM). The plate was incubated at 37° C. for another 2 hr. The medium in the plate was decanted and the cells were rinsed with 1 mL of 1×DPBS for three times. 0.5 mL of 0.25% Trypsin was added into each well and incubated for 3.5 min (at 37° C.). 1 mL of complete medium was added into each well to quench the reaction. After spinning at 350×g for 5 min, the cell pellet was reconstituted in MeOH/H2O (v/v 1/1) and CDD-1713 or CDD-1976 was extracted from 100 μL of the resulting mixture with 100 μL of ice-cold methanol. The mixtures were centrifuged at rcf 15,000 for 15 min. Three μL of the supernatant was analyzed by UHPLC-Q Exactive Orbitrap MS (Thermo Fisher Scientific, USA) equipped with 50 mm×4.6 mm column (XDB C-18, Agilent Technologies, USA). The column temperature was set at 40° C. Ultra-pure nitrogen was applied as the sheath (45 arbitrary unit), auxiliary (10 arbitrary unit), sweep (1.0 arbitrary unit) and the collision gas. […]

[9] = Plasma stability assay, human plasma; format: in vitro ADME; conditions: 10 μM, 37° C., after 2 h incubation
Protocol: as §1

SMILES: CN(C)C(=O)COc1ccc(-c2cccc3[nH]ncc23)cc1C=O [CDD-1976]
- M^pro inhibition (in words) [1]: better inhibition compared to CDD-1713
- Ki ([1]; 25 nM enzyme, 15 μM fluorescent peptide, Morrison equation, Inactive = less than 50% inhibition at 25 μM compound, read-out: M^pro Ki): 42 ± 5 nM
- compound remaining in mouse plasma [2]: 80%
- IC50 ([3]; Severe acute respiratory syndrome coronavirus 2, Vero C1008, 75 h, read-out: IC50, inhibition of SARS-COV-2 induced cell death (RTCA)): 2500 nM
- prevention of SARS-COV-2 induced cell death (in words) ([3]; VERO E6 cells, 75 h): reduced cell death in a dose-dependent manner
- HLM t1/2 (half-life) ([4]; 0.5 mg protein/mL, 2.0 μM compound, 1.0 mM NADPH): 41.4
- metabolic stability in human liver microsomes (in words) ([4]; human, microsomes): more stable
- stabilization of M^pro in thermal shift assay (in words) [5]: stabilized; also recorded: concentration-dependent stabilization; also recorded: most pronounced temperature shift
- MLM t1/2 (half-life) [6]: 10.2
- Ki (SARS-COV-2 M^pro-His6): 37 ± 4 nM
- cytotoxicity in HepG2 cells (in words) (HepG2 cells [7]): no obvious cytotoxicity
- cell permeability in HepG2 uptake assay (in words) (HepG2 cells [8]): moderate cell permeability
- compound remaining in human plasma [9]: 80%
